In PubChem BioAssay (NCI):
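48-hour exposure; five concentrations; linearly interpolated endpoints. GI50 marks 50% less growth. TGI is the concentration that stops growth completely.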

How the values were obtained:
Assay in all cases: NCI anticancer screen, dose series, 48 h
EKVX NSCLC = tested on: EKVX NSCLC
PC-3 prostate = tested on: PC-3 prostate
HL-60(TB) leukemia = tested on: HL-60(TB) leukemia
MOLT-4 leukemia = tested on: MOLT-4 leukemia
SK-MEL-2 melanoma = tested on: SK-MEL-2 melanoma
UO-31 renal = tested on: UO-31 renal
UACC-257 melanoma = tested on: UACC-257 melanoma
M14 melanoma = tested on: M14 melanoma
SK-OV-3 ovarian = tested on: SK-OV-3 ovarian
RPMI-8226 leukemia = tested on: RPMI-8226 leukemia

| Structure (SMILES) | TGI (EKVX NSCLC) | TGI (PC-3 prostate) | TGI (HL-60(TB) leukemia) | TGI (MOLT-4 leukemia) | TGI (SK-MEL-2 melanoma) | TGI (UO-31 renal) | TGI (UACC-257 melanoma) | TGI (M14 melanoma) | TGI (SK-OV-3 ovarian) | TGI (RPMI-8226 leukemia) | GI50 (EKVX NSCLC) | GI50 (PC-3 prostate) | GI50 (HL-60(TB) leukemia) | GI50 (MOLT-4 leukemia) | GI50 (SK-MEL-2 melanoma) | GI50 (UO-31 renal) | GI50 (UACC-257 melanoma) | GI50 (M14 melanoma) | GI50 (RPMI-8226 leukemia) | GI50 (SK-OV-3 ovarian) |
| --- | --- | --- | --- | --- | --- | --- | --- | --- | --- | --- | --- | --- | --- | --- | --- | --- | --- | --- | --- | --- |
| COc1cc2c(cc1OC)C1=C(C=O)c3ccc(OC)c(OC)c3C(O)N1CC2 (centres undefined) | > 100 µM | 54 µM | 75.2 µM | > 100 µM | 28.7 µM | > 100 µM | 50 µM | 78.1 µM | > 100 µM | 38.3 µM |  |  |  |  |  |  |  |  |  |  |
| O=c1[nH]ncc2[nH]c3c(c12)CCc1ccccc1-3 | 30.2 µM | > 100 µM | 69 µM | 69.7 µM | 57.7 µM | > 100 µM | > 100 µM | > 100 µM | > 100 µM | 70.7 µM |  |  |  |  |  |  |  |  |  |  |
| COc1ccc(S(=O)(=O)NC(CCC(=O)NC(N)=O)C(=O)NC(N)=O)cc1 (centres undefined) | > 100 µM | > 100 µM | > 100 µM | > 100 µM | > 100 µM | > 100 µM | > 100 µM | > 100 µM | > 100 µM | > 100 µM |  |  |  |  |  |  |  |  |  |  |
| CC1(C)CCC[C@@]2(C)C1CC[C@@]1(CO)O[C@H](C3=CC(=O)OC3O)C[C@H]12 (some centres undefined) | 60.3 µM | 29.5 µM | 4.31 µM | 11.5 µM | 28.9 µM | 29.2 µM | 35 µM | 31.8 µM | 72.6 µM | > 36.1 µM |  |  |  |  |  |  |  |  |  |  |
| O=C(Nc1ccc(-n2cc(-c3ccncc3)c(-c3ccc(O)c(Cl)c3)n2)cc1)Nc1cc(C(F)(F)F)cc(C(F)(F)F)c1 | 15.6 µM | 11.5 µM | 8.09 µM | 18.3 µM | 4.98 µM | 12.6 µM | 20.5 µM | 13.6 µM |  | 9.95 µM | 3.57 µM | 2.92 µM | 2.98 µM | 4.29 µM | 2.2 µM | 1.94 µM | 5.81 µM | 3.6 µM | 2.81 µM |  |
| CCNC(=S)N/N=C(/C)c1cccc(/C(C)=N\NC(=S)NCC)n1 | > 52.7 µM | > 100 µM | 7.9 µM | 14.7 µM | > 93.1 µM | > 63.6 µM | 31.6 µM | 19.9 µM | 73.8 µM | 25.7 µM |  |  |  |  |  |  |  |  |  |  |
| Clc1[nH]nc2ccccc12 | > 100 µM | > 100 µM | > 100 µM | > 100 µM | > 100 µM | > 100 µM | > 100 µM | > 100 µM | > 100 µM | > 100 µM |  |  |  |  |  |  |  |  |  |  |
| Cc1nnc(SCc2nc(C#N)c(C#N)nc2CSc2nnc(C)s2)s1 | 36.5 µM | 41.1 µM | 7.74 µM | 12.9 µM | 63.4 µM | 24.1 µM | 28.3 µM | 37.6 µM | > 75.9 µM | 18 µM |  |  |  |  |  |  |  |  |  |  |
| COc1ccc2oc(=O)c(-c3cc4c(c(C)n3)c(=O)oc3ccc(OC)cc34)cc2c1 | > 100 µM | > 100 µM | > 100 µM | > 100 µM | > 100 µM | > 100 µM | > 100 µM | > 100 µM | > 100 µM | > 100 µM |  |  |  |  |  |  |  |  |  |  |
| Cc1ccc(C(=O)Nc2ccc(CP(=O)(O)O)cc2CP(=O)(O)O)cc1N | > 100 µM | > 100 µM | > 100 µM | > 100 µM | > 100 µM | > 100 µM | > 100 µM | > 100 µM | > 100 µM | > 100 µM |  |  |  |  |  |  |  |  |  |  |
| COc1cc2c(cc1O)C(Cc1ccc(OCc3ccccc3)c(OCc3ccccc3)c1)N(C(=O)NCCc1ccccc1)CC2 (centres undefined) | > 100 µM | > 100 µM | > 100 µM | > 100 µM | > 100 µM | > 100 µM | > 100 µM | > 100 µM | > 100 µM | > 100 µM |  |  |  |  |  |  |  |  |  |  |
| Cn1c(CO)ccc1-c1ccc(-c2ccc(CO)[se]2)[se]1 | > 100 µM | > 100 µM | > 59.1 µM | > 51.2 µM | 26.9 µM | > 100 µM | > 100 µM | > 73.8 µM | > 100 µM | 12.1 µM |  |  |  |  |  |  |  |  |  |  |
| O=C1Nc2noc(=O)nc2NO1 | > 200 µM | > 200 µM | > 200 µM | > 200 µM | > 200 µM | > 200 µM | > 200 µM | > 200 µM | > 200 µM | > 200 µM |  |  |  |  |  |  |  |  |  |  |
| CN(Cc1cnc2nc(N)nc(N)c2n1)c1ccc(C(=O)NC(CCC(=O)O)C(=O)O)c2ccccc12 (centres undefined) | > 1000 µM | > 1000 µM | > 1000 µM | > 1000 µM | > 1000 µM | > 1000 µM |  | > 1000 µM | > 1000 µM | > 1000 µM | > 1000 µM | 89.8 µM |  |  | > 1000 µM |  | < 0.0363 µM |  |  | 55.3 µM |
| CCCCCCCCCCCCCCCCNc1nc(=O)n(C2OC(C)C(O)C2O)cc1F (centres undefined) | 35.3 µM | 28.1 µM | 75.1 µM | 62.2 µM | 38.9 µM | 27.2 µM | 35.5 µM | 33.5 µM | 37.4 µM | 33.9 µM |  |  |  |  |  |  |  |  |  |  |
| COCc1cc2c(s1)C(=O)C1=C(C2=O)C2(C=C(Br)C(=O)C(Br)=C2)CCN1 | 26.3 µM | 12.1 µM | 16.3 µM | 8.29 µM | 15.2 µM | 25.4 µM | 3.32 µM | 4.32 µM | 30.7 µM | 19.8 µM |  |  |  |  |  |  |  |  |  |  |
| Cc1cc(NC(=O)NC(=O)c2ccccc2NC(=O)CN(C)C)ccc1Oc1ncc(Br)cn1 | > 100 µM | > 100 µM | 12.5 µM | 59.8 µM | > 85.1 µM | > 100 µM | > 100 µM | > 57.4 µM | > 91.5 µM | > 100 µM |  |  |  |  |  |  |  |  |  |  |
| Cn1c2c(c3c(=O)[nH]ncc31)Cc1ccccc1-2 | > 100 µM | > 100 µM | 69 µM | > 100 µM | 41.8 µM | 45.1 µM | 27.1 µM | 38.9 µM | > 100 µM | 69 µM |  |  |  |  |  |  |  |  |  |  |
| CC(C)(NO)/C(=N\O)c1ccccc1 | > 10 µM | > 10 µM | > 10 µM | > 10 µM | > 10 µM | > 10 µM | > 10 µM | > 10 µM |  | > 10 µM |  |  |  |  |  |  |  |  |  |  |
| COc1cccc2c(=O)oc(-c3ccccc3C)nc12 | > 100 µM | > 100 µM | > 100 µM | 68 µM | 67.5 µM | > 100 µM |  |  | > 100 µM | > 100 µM |  |  |  |  |  |  |  |  |  |  |
